Reference: ChEMBL document CHEMBL5143711, “Glenthmycins A-M: Macrocyclic Spirotetronate Polyketide Antibacterials from the Australian Pasture Plant-Derived Streptomyces sp. CMB-PB041” (J Nat Prod, 2022)

Experiments:
Candida albicans = assay: Antifungal activity against Candida albicans ATCC 10231 incubated for 16 to 24 hrs by broth microdilution based spectrophotometric analysis; assay type: functional, organism-based
[1] = system: Mycobacterium tuberculosis; assay: Antibacterial activity against Mycobacterium tuberculosis H37Ra ATCC 25177 incubated for 16 to 24 hrs by broth microdilution based spectrophotometric analysis; assay type: functional, organism-based
[2] = Cytotoxicity against human NCI-H460 cells and measured after 48 hrs by MTT assay; assay type: toxicity, cell-based
Staphylococcus aureus [3] = assay: Antibacterial activity against methicillin-resistant Staphylococcus aureus ATCC 43300 incubated for 16 to 24 hrs by broth microdilution based spectrophotometric analysis; assay type: functional, organism-based
Enterococcus faecalis = assay: Antibacterial activity against Enterococcus faecalis incubated for 16 to 24 hrs by broth microdilution based spectrophotometric analysis; assay type: functional, organism-based
Staphylococcus aureus [4] = assay: Antibacterial activity against methicillin-resistant Staphylococcus aureus ATCC 33591 incubated for 16 to 24 hrs by broth microdilution based spectrophotometric analysis; assay type: functional, organism-based
Enterococcus faecium = assay: Antibacterial activity against vancomycin-resistant Enterococcus faecium incubated for 16 to 24 hrs by broth microdilution based spectrophotometric analysis; assay type: functional, organism-based
Escherichia coli = assay: Antibacterial activity against Escherichia coli ATCC 11775 incubated for 16 to 24 hrs by broth microdilution based spectrophotometric analysis; assay type: functional, organism-based
[5] = Cytotoxicity against human SW-620 cells and measured after 48 hrs by MTT assay; assay type: toxicity, cell-based
Staphylococcus aureus [6] = assay: Antibacterial activity against Staphylococcus aureus ATCC 25923 incubated for 16 to 24 hrs by broth microdilution based spectrophotometric analysis; assay type: functional, organism-based

| SMILES | IC50 (Candida albicans) | IC50 [1] | IC50 at 48 h [2] | IC50 (Staphylococcus aureus [3]) | IC50 (Enterococcus faecalis) | IC50 (Staphylococcus aureus [4]) | IC50 (Enterococcus faecium) | IC50 (Escherichia coli) | IC50 at 48 h [5] | IC50 (Staphylococcus aureus [6]) |
| --- | --- | --- | --- | --- | --- | --- | --- | --- | --- | --- |
| COc1cc(C)c(C(=O)N[C@@H]2[C@@H](C)O[C@@H](O[C@H]3CC[C@H](C)[C@@H]4[C@@H]3C=C(C)[C@H]3/C(C)=C/CC/C(C)=C/[C@]5(C)C=C(C(=O)O)[C@H](C)C[C@]56OC(=O)C(=C6O)C(=O)[C@@]43C)[C@H](O)[C@]2(C)O)c(O)c1 | > 30 µM | > 30 µM | > 30 µM | 9.1 µM | 7.3 µM | 2.2 µM | 9.5 µM | > 30 µM | > 30 µM | 11.9 µM |
| COc1cc(C)c(C(=O)O[C@H]2[C@H](O[C@H]3CC[C@H](C)[C@@H]4[C@@H]3C=C(C)[C@H]3/C(C)=C/CC/C(C)=C/[C@@H]5C=C(C(=O)O)[C@H](C)C[C@]56OC(=O)C(=C6O)C(=O)[C@@]43C)O[C@H](C)[C@@H](O)[C@H]2O)c(O)c1 | > 30 µM | > 30 µM | > 30 µM | 16.3 µM | 2.7 µM | 8.6 µM | 2.9 µM | > 30 µM | > 30 µM | 18.4 µM |
| COc1cc(C)c(C(=O)O[C@H]2[C@@H](O)[C@@H](O)[C@H](O[C@H]3CC[C@H](C)[C@@H]4[C@@H]3C=C(C)[C@H]3/C(C)=C/CC/C(C)=C/[C@]5(C)C=C(C(=O)O)[C@H](C)C[C@]56OC(=O)C(=C6O)C(=O)[C@@]43C)O[C@@H]2C)c(OC)c1 | > 30 µM | > 30 µM | > 30 µM | 3.9 µM | 6.2 µM | 2.3 µM | 3.2 µM | > 30 µM | > 30 µM | 4.9 µM |
| COc1cc(C)c(C(=O)N[C@@H]2[C@@H](C)O[C@@H](O[C@H]3CC[C@H](C)[C@@H]4[C@@H]3C=C(C)[C@H]3/C(C)=C/CC/C(C)=C/[C@@H]5C=C(C(=O)O)[C@H](C)C[C@]56OC(=O)C(=C6O)C(=O)[C@@]43C)[C@H](O)[C@]2(C)O)c(O)c1 | > 30 µM | > 30 µM | > 30 µM | 4.4 µM | 5.7 µM | 1.9 µM | 5.2 µM | > 30 µM | > 30 µM | 6.4 µM |
| COc1cc(C)c(C(=O)O[C@H]2[C@@H](O)[C@H](O[C@H]3CC[C@H](C)[C@@H]4[C@@H]3C=C(C)[C@H]3/C(C)=C/CC/C(C)=C/[C@@H]5C=C(C(=O)O)[C@H](C)C[C@]56OC(=O)C(=C6O)C(=O)[C@@]43C)O[C@H](C)[C@H]2O)c(O)c1 | > 30 µM | > 30 µM | > 30 µM | 7.9 µM | 8.9 µM | 5.8 µM | 2.9 µM | > 30 µM | > 30 µM | 8.4 µM |
| COc1cc(C)c(C(=O)O[C@H]2[C@@H](O)[C@@H](O)[C@H](O[C@H]3CC[C@H](C)[C@@H]4[C@@H]3C=C(C)[C@H]3/C(C)=C/CC/C(C)=C/[C@@H]5C=C(C(=O)O)[C@H](C)C[C@]56OC(=O)C(=C6O)C(=O)[C@@]43C)O[C@@H]2C)c(O)c1 | > 30 µM | > 30 µM | > 30 µM | 6.3 µM | 3.1 µM | 8.3 µM | 5.4 µM | > 30 µM | > 30 µM | 15.3 µM |
| CC1=C[C@H]2[C@@H]([C@@H](C)CC[C@@H]2O)[C@]2(C)C(=O)C3=C(O)[C@@]4(C[C@@H](C)C(C(=O)O)=C[C@H]4/C=C(\C)CC/C=C(\C)[C@H]12)OC3=O | – | – | – | > 30 µM | > 30 µM | > 30 µM | > 30 µM | – | – | > 30 µM |
| CC1=C[C@H]2[C@@H]([C@@H](C)CC[C@@H]2O)[C@]2(C)C(=O)C3=C(O)[C@@]4(C[C@@H](C)C(C(=O)O)=C[C@@]4(C)/C=C(\C)CC/C=C(\C)[C@H]12)OC3=O | – | – | – | > 30 µM | > 30 µM | > 30 µM | > 30 µM | – | – | > 30 µM |
| CC(=O)O[C@H]1CC[C@H](C)[C@@H]2[C@@H]1C=C(C)[C@H]1/C(C)=C/CC/C(C)=C/[C@@H]3C=C(C)[C@H](C)C[C@]34OC(=O)C(=C4O)C(=O)[C@@]21C | > 30 µM | > 30 µM | > 30 µM | 0.3 µM | 3 µM | 6.8 µM | 6.7 µM | > 30 µM | > 30 µM | 0.8 µM |
| COc1cccc(OC)c1C(=O)N[C@@H]1C(=O)N2[C@@H]1SC(C)(C)[C@@H]2C(=O)O [METHICILLIN] | – | – | – | > 10 µM | – | > 10 µM | – | – | – | < 10 µM |
| CN[C@H](CC(C)C)C(=O)N[C@H]1C(=O)N[C@@H](CC(N)=O)C(=O)N[C@H]2C(=O)N[C@H]3C(=O)N[C@H](C(=O)N[C@H](C(=O)O)c4cc(O)cc(O)c4-c4cc3ccc4O)[C@H](O)c3ccc(c(Cl)c3)Oc3cc2cc(c3O[C@@H]2O[C@H](CO)[C@@H](O)[C@H](O)[C@H]2O[C@H]2C[C@](C)(N)[C@H](O)[C@H](C)O2)Oc2ccc(cc2Cl)[C@H]1O [VANCOMYCIN] | – | – | – | – | < 10 µM | – | > 10 µM | – | – | – |
